The values below are quoted from earlier work in patent US20240424024A1, “PHARMACEUTICAL COMPOSITION AND KIT COMPRISING AN IMMUNOMODULATORY SUBSTANCE FOR TREATING DISEASES” (ellennbe GmbH, priority 2021, published 2024).

The subject of the data set is perfusion of the skin. To be noted: 50 μl of 20 mmol/l MN, healthy subjects, Laser Speckle Contrast Imager; Elawa et al. 2020.

For `COC(=O)c1cccnc1` [methyl nicotinate], the “perfusion increase of the skin after topical application” value was “reaches a stable plateau phase after five minutes”.
